Earlier results in US6593300B1, “(3R)-3-amino-4-carboxybutyraldehyde derivatives inhibiting the release of interleukin-1/beta” (Gyogyszerkutato Intezet Kft., priority 1997, dated 2003).

Experiments:
[1] = biological target: T1, ICE (IL-1β converting enzyme) (Homo sapiens, UniProt P29466); conditions: literature reports
T1 sequence (P29466 120-297): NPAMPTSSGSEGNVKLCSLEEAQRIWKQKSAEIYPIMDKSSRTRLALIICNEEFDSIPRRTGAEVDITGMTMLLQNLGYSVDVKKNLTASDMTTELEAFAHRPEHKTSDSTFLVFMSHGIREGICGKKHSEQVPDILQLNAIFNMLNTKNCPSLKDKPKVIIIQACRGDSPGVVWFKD
T1 sequence (P29466 317-404): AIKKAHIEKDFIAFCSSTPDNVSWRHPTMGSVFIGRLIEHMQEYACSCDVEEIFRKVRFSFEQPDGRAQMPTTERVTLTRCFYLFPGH

[2] = biological target: T2, ICE (Mus musculus, UniProt P29452); conditions: "tissue chamber" model, LPS induced fever or septic shock models
T2 construct: in the mouse, in the “tissue chamber” model as well as in lipopolysaccharide (LPS) induced fever or septic shock models; host or cells: mouse (whole animal, endogenous enzyme)
T2 sequence (P29452 119-296 limits assumed): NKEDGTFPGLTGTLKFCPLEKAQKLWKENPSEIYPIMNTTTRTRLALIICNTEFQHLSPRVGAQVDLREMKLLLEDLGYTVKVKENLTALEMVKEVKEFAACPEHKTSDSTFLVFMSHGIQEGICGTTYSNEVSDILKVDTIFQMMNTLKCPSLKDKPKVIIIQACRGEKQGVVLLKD
T2 sequence (P29452 315-402 limits assumed): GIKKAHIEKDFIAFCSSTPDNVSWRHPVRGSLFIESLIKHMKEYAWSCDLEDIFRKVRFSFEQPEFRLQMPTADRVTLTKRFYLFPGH

| in vivo efficacy [2] | Compound | ICE inhibiting effect [1] |
| --- | --- | --- |
| – | O=c1oc(Cl)c(Cl)c2ccccc12 [3,4-dichloro-isocoumarine] | inhibited |
| – | CC(C)C[C@H](NC(=O)[C@H]1O[C@@H]1C(=O)O)C(=O)NCCCCN=C(N)N [Example E64] | not inhibited |
| – | O=C(O)CC(CC(=O)COC(=O)c1c(Cl)cccc1Cl)NC(=O)OCc1ccccc1 (centres unmarked) [Z-AhAsp-CH2DCB, Z-NH—CH(CH2COOH)—CH2—CO—CH2DCB] | ineffective |
| – | O=C(O)C[C@H](NC(=O)OCc1ccccc1)C(=O)COC(=O)c1c(Cl)cccc1Cl [Z-Asp-CH2DCB, Z-NH—CH(CH2COOH)—CO—CH2DCB] | significant ICE inhibiting effect |
| confirmed | Ac-Tyr-Val-Ala-Asp-H: first reversible inhibitor of ICE, tetrapeptide aldehyde | – |
